Laboratory results as given in the kinase profiling compilation of Christmann-Franck et al. (2016).

Legend:
Test in all cases: radiometric filter-binding kinase assay, Kinase HotSpot
Conditions in all cases: compound 0.5 µM; ATP 10 µM
RPS6KA4 KD2 (human) = RPS6KA4 KD2 (human) (UniProt O75676)
DAPK1 (human) = DAPK1 (human) (UniProt P53355)
NEK7 (human) = NEK7 (human) (UniProt Q8TDX7)
VRK1 (human) = VRK1 (human) (UniProt Q99986)
PRKCI (human) = PRKCI (human) (UniProt P41743)
[1] = tested on: PRKCQ (human), Q04759 [P330L]
[2] = tested on: FLT4 (human), P35916 [Q890H]
PAK3 (human) = PAK3 (human) (UniProt O75914)
TYRO3 (human) = TYRO3 (human) (UniProt Q06418)
DYRK3 (human) = DYRK3 (human) (UniProt O43781)
MST1R (human) = MST1R (human) (UniProt Q04912)
PNCK (human) = PNCK (human) (UniProt Q6P2M8)
CHEK1 (human) = CHEK1 (human) (UniProt O14757)
CHEK1 (human), sequence (O14757 whole entry, looked up): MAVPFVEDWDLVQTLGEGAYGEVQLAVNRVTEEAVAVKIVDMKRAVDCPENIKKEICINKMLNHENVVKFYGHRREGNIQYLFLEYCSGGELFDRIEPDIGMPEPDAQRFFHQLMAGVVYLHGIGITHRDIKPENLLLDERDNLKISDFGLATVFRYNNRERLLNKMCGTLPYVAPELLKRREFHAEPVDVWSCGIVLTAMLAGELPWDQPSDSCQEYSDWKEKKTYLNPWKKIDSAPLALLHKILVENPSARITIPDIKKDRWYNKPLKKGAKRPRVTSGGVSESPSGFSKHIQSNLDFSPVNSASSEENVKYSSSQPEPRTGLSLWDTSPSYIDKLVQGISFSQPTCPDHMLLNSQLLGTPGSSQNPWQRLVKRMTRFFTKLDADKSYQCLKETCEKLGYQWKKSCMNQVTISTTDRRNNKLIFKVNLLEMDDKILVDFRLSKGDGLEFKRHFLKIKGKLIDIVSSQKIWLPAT

FLT1 (human) = FLT1 (human) (UniProt P17948)
ITK (human) = ITK (human) (UniProt Q08881)
KIT (human) = KIT (human) (UniProt P10721)
NEK2 (human) = NEK2 (human) (UniProt P51955)
NEK2 (human), sequence (P51955 whole entry, looked up): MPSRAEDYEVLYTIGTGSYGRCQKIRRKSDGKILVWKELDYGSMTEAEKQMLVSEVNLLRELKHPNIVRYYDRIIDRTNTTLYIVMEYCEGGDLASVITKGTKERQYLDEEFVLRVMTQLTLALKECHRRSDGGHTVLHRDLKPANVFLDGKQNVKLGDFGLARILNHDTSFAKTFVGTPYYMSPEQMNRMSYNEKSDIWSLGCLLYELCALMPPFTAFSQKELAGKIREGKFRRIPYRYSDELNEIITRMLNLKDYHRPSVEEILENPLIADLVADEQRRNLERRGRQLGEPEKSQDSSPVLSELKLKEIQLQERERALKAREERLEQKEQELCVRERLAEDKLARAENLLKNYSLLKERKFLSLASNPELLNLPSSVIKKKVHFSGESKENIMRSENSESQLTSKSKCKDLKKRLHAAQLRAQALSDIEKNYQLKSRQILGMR

HCK (human) = HCK (human) (UniProt P08631)
MYLK (human) = MYLK (human) (UniProt Q15746)
MELK (human) = MELK (human) (UniProt Q14680)
MELK (human), sequence (Q14680 whole entry, looked up): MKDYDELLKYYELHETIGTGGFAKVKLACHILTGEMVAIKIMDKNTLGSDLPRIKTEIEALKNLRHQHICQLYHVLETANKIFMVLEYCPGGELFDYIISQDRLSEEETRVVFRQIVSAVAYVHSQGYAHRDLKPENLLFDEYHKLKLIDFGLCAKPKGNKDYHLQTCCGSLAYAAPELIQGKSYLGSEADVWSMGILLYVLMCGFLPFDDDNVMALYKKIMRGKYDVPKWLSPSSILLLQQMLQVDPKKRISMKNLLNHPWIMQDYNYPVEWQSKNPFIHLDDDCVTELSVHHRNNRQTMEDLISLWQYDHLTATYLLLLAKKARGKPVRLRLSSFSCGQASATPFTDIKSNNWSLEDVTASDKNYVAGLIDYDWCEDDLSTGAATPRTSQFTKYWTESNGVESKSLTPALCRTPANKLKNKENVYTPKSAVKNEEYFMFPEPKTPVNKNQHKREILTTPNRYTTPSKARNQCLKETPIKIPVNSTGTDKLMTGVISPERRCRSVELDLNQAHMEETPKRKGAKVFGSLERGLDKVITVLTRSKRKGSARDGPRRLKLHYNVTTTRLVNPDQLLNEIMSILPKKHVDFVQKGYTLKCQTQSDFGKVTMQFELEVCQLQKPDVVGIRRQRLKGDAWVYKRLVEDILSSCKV

SGK2 (human) = SGK2 (human) (UniProt Q9HBY8)
EPHA3 (human) = EPHA3 (human) (UniProt P29320)
PTK2B (human) = PTK2B (human) (UniProt Q14289)
CAMK1 (human) = CAMK1 (human) (UniProt Q14012)
CAMK2G (human) = CAMK2G (human) (UniProt Q13555)
CAMK2G (human), sequence (Q13555 whole entry, looked up): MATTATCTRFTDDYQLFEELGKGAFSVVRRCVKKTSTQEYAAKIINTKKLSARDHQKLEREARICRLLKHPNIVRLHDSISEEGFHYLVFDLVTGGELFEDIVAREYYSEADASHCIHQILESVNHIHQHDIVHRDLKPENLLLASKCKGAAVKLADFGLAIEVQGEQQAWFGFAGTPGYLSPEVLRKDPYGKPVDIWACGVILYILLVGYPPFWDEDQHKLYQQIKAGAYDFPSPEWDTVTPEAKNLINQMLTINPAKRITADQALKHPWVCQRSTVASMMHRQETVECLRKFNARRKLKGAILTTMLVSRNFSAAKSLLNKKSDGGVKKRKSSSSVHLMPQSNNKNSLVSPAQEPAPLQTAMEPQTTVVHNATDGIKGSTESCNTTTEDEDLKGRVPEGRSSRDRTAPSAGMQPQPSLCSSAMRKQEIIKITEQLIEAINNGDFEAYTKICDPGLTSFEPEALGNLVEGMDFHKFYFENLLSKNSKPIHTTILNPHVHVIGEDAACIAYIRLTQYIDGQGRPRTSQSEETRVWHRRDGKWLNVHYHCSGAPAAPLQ

PRKCZ (human) = PRKCZ (human) (UniProt Q05513)
NLK (human) = NLK (human) (UniProt Q9UBE8)
CSNK1G1 (human) = CSNK1G1 (human) (UniProt Q9HCP0)
IRAK4 (human) = IRAK4 (human) (UniProt Q9NWZ3)
IRAK1 (human) = IRAK1 (human) (UniProt P51617)
ROS1 (human) = ROS1 (human) (UniProt P08922)
RPS6KB1 (human) = RPS6KB1 (human) (UniProt P23443)
AURKB (human) = AURKB (human) (UniProt Q96GD4)
PRKCA (human) = PRKCA (human) (UniProt P17252)
CDK1 CCNA2 (human) = CDK1 CCNA2 (human) (UniProt P06493+P20248)
CLK2 (human) = CLK2 (human) (UniProt P49760)
[3] = tested on: MAP2K6 (human), P52564 [S207E/T211E]
AURKC (human) = AURKC (human) (UniProt Q9UQB9)
FGR (human) = FGR (human) (UniProt P09769)
FGR (human), sequence (P09769 whole entry, looked up): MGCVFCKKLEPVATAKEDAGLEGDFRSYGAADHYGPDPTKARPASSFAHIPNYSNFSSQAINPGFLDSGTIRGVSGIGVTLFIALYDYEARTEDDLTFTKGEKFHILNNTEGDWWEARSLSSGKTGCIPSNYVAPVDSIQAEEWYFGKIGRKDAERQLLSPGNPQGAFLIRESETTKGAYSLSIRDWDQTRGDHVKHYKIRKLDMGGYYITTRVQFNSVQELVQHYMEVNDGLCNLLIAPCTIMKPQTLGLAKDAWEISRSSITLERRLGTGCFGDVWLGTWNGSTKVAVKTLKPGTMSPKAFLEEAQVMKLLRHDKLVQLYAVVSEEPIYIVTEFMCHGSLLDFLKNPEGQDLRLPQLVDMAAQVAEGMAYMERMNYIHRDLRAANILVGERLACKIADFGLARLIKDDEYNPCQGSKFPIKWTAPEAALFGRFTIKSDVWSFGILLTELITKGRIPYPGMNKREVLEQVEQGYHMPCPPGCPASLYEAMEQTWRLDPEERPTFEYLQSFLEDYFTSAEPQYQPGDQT

ACVRL1 (human) = ACVRL1 (human) (UniProt P37023)
STK25 (human) = STK25 (human) (UniProt O00506)
ADRBK2 (human) = ADRBK2 (human) (UniProt P35626)

RPS6KA4 KD2 (human), sequence (O75676 whole entry, looked up): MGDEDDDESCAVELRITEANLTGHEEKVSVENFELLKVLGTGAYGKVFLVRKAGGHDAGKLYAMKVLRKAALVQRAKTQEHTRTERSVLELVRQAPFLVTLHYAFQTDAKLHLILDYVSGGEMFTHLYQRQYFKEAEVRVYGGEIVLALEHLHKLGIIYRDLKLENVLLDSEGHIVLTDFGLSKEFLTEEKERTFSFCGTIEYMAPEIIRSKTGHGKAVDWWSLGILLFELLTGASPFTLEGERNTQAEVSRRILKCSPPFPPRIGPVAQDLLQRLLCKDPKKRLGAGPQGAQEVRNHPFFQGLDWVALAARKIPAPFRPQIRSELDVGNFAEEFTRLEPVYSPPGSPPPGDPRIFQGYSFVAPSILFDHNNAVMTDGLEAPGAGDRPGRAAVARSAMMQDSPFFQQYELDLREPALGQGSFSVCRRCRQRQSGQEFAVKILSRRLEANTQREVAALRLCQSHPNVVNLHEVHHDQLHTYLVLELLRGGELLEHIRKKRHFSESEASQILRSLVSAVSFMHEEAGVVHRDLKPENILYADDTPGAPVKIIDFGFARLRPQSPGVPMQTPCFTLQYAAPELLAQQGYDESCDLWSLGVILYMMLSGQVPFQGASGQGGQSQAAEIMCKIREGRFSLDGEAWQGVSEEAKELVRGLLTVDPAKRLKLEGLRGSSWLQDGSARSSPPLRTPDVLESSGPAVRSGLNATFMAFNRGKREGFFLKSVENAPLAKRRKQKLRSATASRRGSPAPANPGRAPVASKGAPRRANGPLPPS
DAPK1 (human), sequence (P53355 whole entry, looked up): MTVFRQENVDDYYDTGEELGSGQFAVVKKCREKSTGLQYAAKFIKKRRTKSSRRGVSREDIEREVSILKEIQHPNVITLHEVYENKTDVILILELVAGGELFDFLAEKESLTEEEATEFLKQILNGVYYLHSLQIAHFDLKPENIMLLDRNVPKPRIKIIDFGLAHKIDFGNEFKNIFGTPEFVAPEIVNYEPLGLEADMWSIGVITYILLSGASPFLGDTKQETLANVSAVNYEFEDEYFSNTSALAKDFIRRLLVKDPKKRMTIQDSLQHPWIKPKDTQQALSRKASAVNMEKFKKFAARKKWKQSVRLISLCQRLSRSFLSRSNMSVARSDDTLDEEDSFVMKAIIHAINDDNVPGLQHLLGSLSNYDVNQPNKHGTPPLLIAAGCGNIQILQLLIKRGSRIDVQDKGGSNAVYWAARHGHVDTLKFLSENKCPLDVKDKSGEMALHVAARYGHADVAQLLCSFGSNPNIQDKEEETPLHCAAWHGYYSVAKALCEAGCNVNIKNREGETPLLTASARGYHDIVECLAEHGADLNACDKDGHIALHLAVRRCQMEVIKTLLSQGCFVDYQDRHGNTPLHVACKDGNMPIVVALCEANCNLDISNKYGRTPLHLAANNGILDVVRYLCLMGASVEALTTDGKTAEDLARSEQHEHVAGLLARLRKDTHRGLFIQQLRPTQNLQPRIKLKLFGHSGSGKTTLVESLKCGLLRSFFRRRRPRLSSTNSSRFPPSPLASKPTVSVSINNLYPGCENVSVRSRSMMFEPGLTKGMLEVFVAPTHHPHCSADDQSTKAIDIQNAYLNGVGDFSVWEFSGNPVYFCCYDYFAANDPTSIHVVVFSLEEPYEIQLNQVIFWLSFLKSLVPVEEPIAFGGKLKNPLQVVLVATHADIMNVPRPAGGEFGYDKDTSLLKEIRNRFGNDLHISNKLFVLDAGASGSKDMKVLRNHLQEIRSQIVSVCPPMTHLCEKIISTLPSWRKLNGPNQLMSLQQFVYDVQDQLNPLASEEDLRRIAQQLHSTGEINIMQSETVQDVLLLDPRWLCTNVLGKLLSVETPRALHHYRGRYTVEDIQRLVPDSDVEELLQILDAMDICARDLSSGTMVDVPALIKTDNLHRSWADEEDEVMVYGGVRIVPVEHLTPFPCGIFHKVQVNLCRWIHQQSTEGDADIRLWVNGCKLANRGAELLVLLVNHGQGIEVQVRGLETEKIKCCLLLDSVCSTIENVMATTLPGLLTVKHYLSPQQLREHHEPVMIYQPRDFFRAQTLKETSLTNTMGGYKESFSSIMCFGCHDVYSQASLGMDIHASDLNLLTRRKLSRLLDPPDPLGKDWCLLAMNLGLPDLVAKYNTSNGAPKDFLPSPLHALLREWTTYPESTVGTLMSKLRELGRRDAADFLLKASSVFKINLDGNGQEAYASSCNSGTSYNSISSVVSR

Ic1cccc(CSc2nnc(-c3ccncc3)o2)c1
residual activity (RPS6KA4 KD2 (human)): 92.1%
residual activity (DAPK1 (human)): 90.3%
residual activity (NEK7 (human)): 102%
residual activity (VRK1 (human)): 93.1%
residual activity (PRKCI (human)): 96.4%
residual activity [1]: 120%
residual activity [2]: 96.2%
residual activity (PAK3 (human)): 92.9%
residual activity (TYRO3 (human)): 103%
residual activity (DYRK3 (human)): 108%
residual activity (MST1R (human)): 104%
residual activity (PNCK (human)): 101%
residual activity (CHEK1 (human)): 96.3%
residual activity (FLT1 (human)): 91%
residual activity (ITK (human)): 102%
residual activity (KIT (human)): 99.8%
residual activity (NEK2 (human)): 100%
residual activity (HCK (human)): 104%
residual activity (MYLK (human)): 99.1%
residual activity (MELK (human)): 97.7%
residual activity (SGK2 (human)): 102%
residual activity (EPHA3 (human)): 111%
residual activity (PTK2B (human)): 92.1%
residual activity (CAMK1 (human)): 102%
residual activity (CAMK2G (human)): 96.8%
residual activity (PRKCZ (human)): 96.1%
residual activity (NLK (human)): 107%
residual activity (CSNK1G1 (human)): 91.7%
residual activity (IRAK4 (human)): 105%
residual activity (IRAK1 (human)): 121%
residual activity (ROS1 (human)): 99.3%
residual activity (RPS6KB1 (human)): 100%
residual activity (AURKB (human)): 99.1%
residual activity (PRKCA (human)): 123%
residual activity (CDK1 CCNA2 (human)): 99.8%
residual activity (CLK2 (human)): 104%
residual activity [3]: 97%
residual activity (AURKC (human)): 91.2%
residual activity (FGR (human)): 90.9%
residual activity (ACVRL1 (human)): 103%
residual activity (STK25 (human)): 96.2%
residual activity (ADRBK2 (human)): 103%

COc1ccc(C(=O)Nc2sc3c(c2C(N)=O)CCCC3)cc1OC
residual activity (RPS6KA4 KD2 (human)): 102%
residual activity (DAPK1 (human)): 78.2%
residual activity (NEK7 (human)): 99%
residual activity (VRK1 (human)): 95.3%
residual activity (PRKCI (human)): 91.8%
residual activity [1]: 97.5%
residual activity [2]: 110%
residual activity (PAK3 (human)): 96.2%
residual activity (TYRO3 (human)): 98.1%
residual activity (DYRK3 (human)): 98%
residual activity (MST1R (human)): 105%
residual activity (PNCK (human)): 103%
residual activity (CHEK1 (human)): 112%
residual activity (FLT1 (human)): 99.1%
residual activity (ITK (human)): 99.6%
residual activity (KIT (human)): 46.2%
residual activity (NEK2 (human)): 95.4%
residual activity (HCK (human)): 109%
residual activity (MYLK (human)): 41.2%
residual activity (MELK (human)): 46%
residual activity (SGK2 (human)): 100%
residual activity (EPHA3 (human)): 108%
residual activity (PTK2B (human)): 95.5%
residual activity (CAMK1 (human)): 90.9%
residual activity (CAMK2G (human)): 95.8%
residual activity (PRKCZ (human)): 89.3%
residual activity (NLK (human)): 93.7%
residual activity (CSNK1G1 (human)): 90.1%
residual activity (IRAK4 (human)): 94.8%
residual activity (IRAK1 (human)): 79.8%
residual activity (ROS1 (human)): 78.8%
residual activity (RPS6KB1 (human)): 84.3%
residual activity (AURKB (human)): 96.2%
residual activity (PRKCA (human)): 96.6%
residual activity (CDK1 CCNA2 (human)): 105%
residual activity (CLK2 (human)): 86.5%
residual activity [3]: 114%
residual activity (AURKC (human)): 97.2%
residual activity (FGR (human)): 90%
residual activity (ACVRL1 (human)): 110%
residual activity (STK25 (human)): 91.7%
residual activity (ADRBK2 (human)): 103%

COc1cc2ncnc(Nc3ccc(OCc4ccccc4)cc3)c2cc1OC
residual activity (RPS6KA4 KD2 (human)): 105%
residual activity (DAPK1 (human)): 98.5%
residual activity (NEK7 (human)): 101%
residual activity (VRK1 (human)): 89%
residual activity (PRKCI (human)): 101%
residual activity [1]: 102%
residual activity [2]: 98.9%
residual activity (PAK3 (human)): 97.7%
residual activity (TYRO3 (human)): 86.9%
residual activity (DYRK3 (human)): 101%
residual activity (MST1R (human)): 106%
residual activity (PNCK (human)): 99%
residual activity (CHEK1 (human)): 101%
residual activity (FLT1 (human)): 96%
residual activity (ITK (human)): 96.2%
residual activity (KIT (human)): 63%
residual activity (NEK2 (human)): 107%
residual activity (HCK (human)): 74.5%
residual activity (MYLK (human)): 95%
residual activity (MELK (human)): 102%
residual activity (SGK2 (human)): 100%
residual activity (EPHA3 (human)): 98.1%
residual activity (PTK2B (human)): 99.8%
residual activity (CAMK1 (human)): 98.4%
residual activity (CAMK2G (human)): 94.2%
residual activity (PRKCZ (human)): 113%
residual activity (NLK (human)): 96.5%
residual activity (CSNK1G1 (human)): 90.6%
residual activity (IRAK4 (human)): 119%
residual activity (IRAK1 (human)): 97.4%
residual activity (ROS1 (human)): 98%
residual activity (RPS6KB1 (human)): 95.1%
residual activity (AURKB (human)): 50.3%
residual activity (PRKCA (human)): 93.9%
residual activity (CDK1 CCNA2 (human)): 97.2%
residual activity (CLK2 (human)): 102%
residual activity [3]: 109%
residual activity (AURKC (human)): 84.8%
residual activity (FGR (human)): 72.2%
residual activity (ACVRL1 (human)): 102%
residual activity (STK25 (human)): 93.4%
residual activity (ADRBK2 (human)): 99.6%

Cc1cncc2cccc(S(=O)(=O)N3CCCN(C(=O)CN)C[C@H]3C)c12
residual activity (RPS6KA4 KD2 (human)): 82.3%
residual activity (DAPK1 (human)): 97.9%
residual activity (NEK7 (human)): 103%
residual activity (VRK1 (human)): 102%
residual activity (PRKCI (human)): 87.4%
residual activity [1]: 105%
residual activity [2]: 113%
residual activity (PAK3 (human)): 105%
residual activity (TYRO3 (human)): 98.9%
residual activity (DYRK3 (human)): 107%
residual activity (MST1R (human)): 99.3%
residual activity (PNCK (human)): 101%
residual activity (CHEK1 (human)): 100%
residual activity (FLT1 (human)): 96.9%
residual activity (ITK (human)): 97.2%
residual activity (KIT (human)): 92.9%
residual activity (NEK2 (human)): 105%
residual activity (HCK (human)): 96.4%
residual activity (MYLK (human)): 103%
residual activity (MELK (human)): 83%
residual activity (SGK2 (human)): 102%
residual activity (EPHA3 (human)): 98.7%
residual activity (PTK2B (human)): 92.5%
residual activity (CAMK1 (human)): 102%
residual activity (CAMK2G (human)): 94%
residual activity (PRKCZ (human)): 91.2%
residual activity (NLK (human)): 99.6%
residual activity (CSNK1G1 (human)): 92.4%
residual activity (IRAK4 (human)): 109%
residual activity (IRAK1 (human)): 135%
residual activity (ROS1 (human)): 60.3%
residual activity (RPS6KB1 (human)): 93.3%
residual activity (AURKB (human)): 34.9%
residual activity (PRKCA (human)): 109%
residual activity (CDK1 CCNA2 (human)): 89.2%
residual activity (CLK2 (human)): 102%
residual activity [3]: 107%
residual activity (AURKC (human)): 71.9%
residual activity (FGR (human)): 94.1%
residual activity (ACVRL1 (human)): 99.2%
residual activity (STK25 (human)): 119%
residual activity (ADRBK2 (human)): 95%
